Reference: patent publication US20220298138A1, “ENZYME INHIBITORS” (KALVISTA PHARMACEUTICALS LIMITED, priority 2019, published 2022)
Where two headings read alike, the source gives them in different places.

Target: T1, Human Factor XIIa (Homo sapiens, UniProt P00748)
T1 construct: purchased Enzyme Research Laboratories
T1 sequence (P00748 373-615 limits assumed): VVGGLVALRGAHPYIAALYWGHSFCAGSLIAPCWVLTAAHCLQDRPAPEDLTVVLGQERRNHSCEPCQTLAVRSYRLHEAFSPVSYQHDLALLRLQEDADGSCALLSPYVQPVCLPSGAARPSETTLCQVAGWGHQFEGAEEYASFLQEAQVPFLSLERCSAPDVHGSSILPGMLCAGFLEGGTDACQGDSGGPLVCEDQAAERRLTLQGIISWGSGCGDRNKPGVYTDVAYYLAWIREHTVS
Test: Factor XIIa inhibitory activity in vitro (fluorogenic substrate H-DPro-Phe-Arg-AFC)
Format: biochemical
Conditions: 25° C., read-out: Human FXIIa IC50
Experimental: Determination of the % Inhibition for FXIIa
Human Factor XIIa (Enzyme Research Laboratories) was incubated at 25° C. with the fluorogenic substrate H-DPro-Phe-Arg-AFC and various concentrations of the test compound. Residual enzyme activity (initial rate of reaction) was determined by measuring the change in […] at 410 nm and the IC50 value for the test compound was determined.

| IC50 (class symbols) [µM] | IC50 (numeric bound instead of class symbol) [µM] | Structure (SMILES) |
| --- | --- | --- |
| 3 to 10 | – | C[C@@H]1CCC[C@H](C)N1CC(=O)N[C@@H](Cc1ccc(F)c(F)c1)C(=O)NCc1cnc2[nH]ccc2c1 [Example 34.06] |
| 3 to 10 | – | C[C@@H]1CCC[C@H](C)N1[C@@H](C)C(=O)N[C@@H](Cc1ccc(F)c(F)c1)C(=O)NCc1ccc2c(N)nccc2c1 [Example 5.106] |
| 10 to 40 | – | Nc1nccc2cc(CNC(=O)C[C@@H](N)Cc3ccccc3)ccc12 [Example 24.03] |
| 10 to 40 | – | CS(=O)(=O)N[C@@H](Cc1ccc(F)c(F)c1)C(=O)NCc1ccc2c(N)nccc2c1 [Example 55.02] |
| 10 to 40 | – | CC(C)N[C@H](CCc1ccccc1)C(=O)N[C@@H](C)C(=O)NCC1CNc2ccc(Cl)cc2O1 (some centres unmarked) [Example 9.20] |
| 1 to 3 | – | C[C@@H]1CCC[C@H](C)N1CC(=O)N1CCC[C@@H](C(=O)NCc2ccc3c(N)nccc3c2)C1 [Example 32.08] |
| 3 to 10 | – | Nc1nccc2cc(CNC(=O)[C@H](Cc3ccc(F)c(F)c3)NC(=O)C3=CCC(=O)NN3)ccc12 [Example 0.44] |
| 0.1 to 0.279 | – | C[C@@H]1CCC[C@H](C)N1CC(=O)N[C@@H](Cc1ccc(F)cc1)C(=O)NCc1ccc2c(N)nccc2c1 [Example 3.14] |
| 10 to 40 | – | C[C@@H]1CCC[C@H](C)N1CC(=O)N1c2ccccc2C[C@H]1C(=O)NCc1ccc2c(N)nccc2c1 [Example 32.04] |
| 10 to 40 | – | CC(C)N1CCC[C@@H]1C(=O)N[C@@H](Cc1ccc(F)c(F)c1)C(=O)NCc1cccc2[nH]ccc12 [Example 44.03] |
| – | > 12.7 | Cc1ccnn1-c1ccc(C(=O)N[C@@H](Cc2ccc(F)c(F)c2)C(=O)NCc2ccc3c(N)nccc3c2)cc1 [Example 0.83] |
| 3 to 10 | – | Nc1nccc2cc(CNC(=O)[C@H](Cc3ccc(F)c(F)c3)NC(=O)c3cncnc3)ccc12 [Example 0.20] |
| 10 to 40 | – | CC[C@H](NC(=O)[C@@H](CCc1ccccc1)NC(=O)OC(C)(C)C)C(=O)NCc1ccc2c(N)nccc2c1 [Example 6.04] |
| 0.28 to 1 | – | C[C@@H]1CC[C@H](C)N1CC(=O)N[C@@H](Cc1ccc(F)c(F)c1)C(=O)NCc1ccc2c(N)nccc2c1 [Example 3.20] |
| 3 to 10 | – | Nc1nccc2cc(CNC(=O)[C@H](Cc3ccc(F)c(F)c3)NC(=O)c3ccco3)ccc12 [Example 0.78] |
| 10 to 40 | – | COc1ccc(CNC(=O)[C@H](Cc2ccc(F)c(F)c2)NC(=O)CN2[C@H](C)CCC[C@@H]2C)cc1Cl [Example 34.01] |
| 10 to 40 | – | CC1CCCC(C)N1CC(=O)N[C@@H](Cc1ccc(F)c(F)c1)C(=O)NCc1ccnc(N)c1 (some centres unmarked) [Example 3.102] |
| 10 to 40 | – | Nc1nccc2cc(CNC(=O)[C@H](Cc3ccc(F)c(F)c3)NC(=O)Cc3ccsc3)ccc12 [Example 3.26] |
| 3 to 10 | – | C[C@H](NC(=O)[C@@H](CCc1ccccc1)NC1CCOCC1)C(=O)NCc1ccc2[nH]cc(Cl)c2c1 [Example 9.17] |
| 10 to 40 | – | Nc1nccc2cc(CNC(=O)[C@H](Cc3ccc(F)c(F)c3)NC(=O)c3cc(F)cc(F)c3)ccc12 [Example 0.73] |
| 3 to 10 | – | C[C@H](NC(=O)[C@@H](CCc1ccccc1)NCC(C)(C)C)C(=O)NCc1cnc2[nH]cc(Cl)c2c1 [Example 9.26] |
| 10 to 40 | – | C[C@@H]1CCC[C@H](C)N1CC(=O)N[C@@H](Cc1ccc(F)c(F)c1)C(=O)NCc1ccc2c(cnn2C)c1 [Example 34.08] |
| 10 to 40 | – | Nc1nccc2cc(CNC(=O)[C@H](Cc3ccc(F)c(F)c3)NC(=O)c3ccc4ncccc4n3)ccc12 [Example 0.31] |
| 10 to 40 | – | Nc1nccc2cc(CNC(=O)[C@H](Cc3ccc(F)c(F)c3)NC(=O)C3(C(F)(F)F)CC3)ccc12 [Example 0.72] |
| 10 to 40 | – | C[C@@H](C(=O)N[C@@H](Cc1ccc(F)c(F)c1)C(=O)NCc1ccc2c(N)nccc2c1)N(C)C [Example 5.104] |

| IC50 (class symbols) [µM] | IC50 (numeric bound instead of class symbol) [µM] | Structure (SMILES) |
| --- | --- | --- |
| 3 to 10 | – | Nc1nccc2cc(CNC(=O)[C@H](Cc3ccc(F)c(F)c3)NC(=O)c3cscn3)ccc12 [Example 0.33] |
| 1 to 3 | – | Nc1nccc2cc(CNC(=O)[C@H](Cc3ccc(F)c(F)c3)NC(=O)CN3CCCC3)ccc12 [Example 3.41] |
| 3 to 10 | – | Nc1nccc2cc(CNC(=O)[C@H](Cc3ccc(F)c(F)c3)NC(=O)c3ccc(O)nc3)ccc12 [Example 0.62] |
| 10 to 40 | – | C[C@@H]1CCC[C@H](C)N1CC(=O)N[C@H](CC(=O)NCc1ccc2c(N)nccc2c1)Cc1ccccc1 [Example 39.04] |
| 0.1 to 0.279 | – | CC1CCCC(C)N1CC(=O)N[C@@H](Cc1cccc(F)c1)C(=O)NCc1ccc2c(N)nccc2c1 (some centres unmarked) [Example 3.04] |
| 3 to 10 | – | Nc1nccc2cc(CNC(=O)[C@H](Cc3ccc(F)c(F)c3)NC(=O)c3cccc(-n4ccnc4)c3)ccc12 [Example 0.09] |
| 3 to 10 | – | Cc1cnc(C(=O)N[C@@H](Cc2ccc(F)c(F)c2)C(=O)NCc2ccc3c(N)nccc3c2)cn1 [Example 0.22] |
| 10 to 40 | – | Nc1nccc2cc(CNC(=O)[C@H](Cc3ccc(F)c(F)c3)NC(=O)c3cccs3)ccc12 [Example 0.82] |
| 3 to 10 | – | Nc1nccc2cc(CNC(=O)[C@H](Cc3ccc(F)c(F)c3)NC(=O)c3cc(CO)ccn3)ccc12 [Example 0.59] |
| 1 to 3 | – | Nc1nccc2cc(CNC(=O)[C@H](Cc3ccc(F)c(F)c3)NC(=O)c3ccc(Cn4cnnn4)cc3)ccc12 [Example 0.67] |
| 10 to 40 | – | Nc1nccc2cc(CNC(=O)[C@H](Cc3ccc(F)c(F)c3)NC(=O)c3c[nH]nc3C3CC3)ccc12 [Example 0.61] |
| 10 to 40 | – | Cc1nc2ccncc2cc1C(=O)N[C@@H](Cc1ccc(F)c(F)c1)C(=O)NCc1ccc2c(N)nccc2c1 [Example 0.26] |
| 10 to 40 | – | Nc1nccc2cc(CNC(=O)[C@H](Cc3ccc(F)c(F)c3)NC(=O)CN3CCCC3=O)ccc12 [Example 3.37] |
| 1 to 3 | – | Nc1nccc2cc(CNC(=O)[C@H](Cc3ccc(F)c(F)c3)NC(=O)c3ccn4ncnc4n3)ccc12 [Example 0.93] |
| 10 to 40 | – | CC(NC(=O)[C@@H](CCc1ccccc1)NC1CCOCC1)C(=O)NCc1cnc2[nH]cc(Cl)c2c1 (some centres unmarked) [Example 9.22] |
| 1 to 3 | – | CC[C@H](NC(=O)[C@H](N)CCc1ccccc1)C(=O)NCc1ccc2c(N)nccc2c1 [Example 6.05] |
| 10 to 40 | – | N#Cc1cccc(CC(=O)N[C@@H](Cc2ccc(F)c(F)c2)C(=O)NCc2ccc3c(N)nccc3c2)c1 [Example 3.25] |
| 1 to 3 | – | CN(C)[C@H](CCc1ccccc1)C(=O)NCC(=O)NCc1ccc2c(N)nccc2c1 [Example 18.104] |
| 1 to 3 | – | Nc1nccc2cc(CNC(=O)[C@H](Cc3ccc(F)c(F)c3)NC(=O)CN3CCCCC3)ccc12 [Example 3.06] |
| 3 to 10 | – | CNS(=O)(=O)c1cccc(C(=O)N[C@@H](Cc2ccc(F)c(F)c2)C(=O)NCc2ccc3c(N)nccc3c2)c1 [Example 0.60] |
| 1 to 3 | – | Nc1nccc2cc(CNC(=O)[C@@H]3CCCCN3C(=O)[C@H](N)CCc3ccccc3)ccc12 [Example 17.03] |
| 10 to 40 | – | CC(C)N1CCC[C@@H]1C(=O)N[C@@H](Cc1ccc(F)c(F)c1)C(=O)NC1CCN(c2ccncc2)CC1 [Example 44.02] |
| 0.28 to 1 | – | C[C@H](NC(=O)[C@@H](CCc1ccccc1)NCC(C)(C)C)C(=O)NCc1ccc2[nH]cc(Cl)c2c1 [Example 9.18] |
| 3 to 10 | – | Nc1nccc2cc(CNC(=O)[C@H](Cc3ccc(F)c(F)c3)NC(=O)c3cccc(N4CCCC4=O)c3)ccc12 [Example 0.81] |
| 3 to 10 | – | Nc1nccc2cc(CNC(=O)[C@H](Cc3ccc(F)c(F)c3)NC(=O)c3ccnnc3)ccc12 [Example 0.16] |
